Assay results published in patent publication US20080045584A1, “Use of Docetaxel for Treating Hepatocellular Carcinoma” (priority 1999, published 2008).
Where two headings read alike, the source gives them in different places.

Experiments:
[1] = tested on: hepatoma cell lines (Hep G2, Hep 3B, HA22T/VGH and Hepa 1-6); assay: Cell viability study: MTT assay, all lines (FIG. 1); assay type: cell-based
Hep G2 cells [2] = assay: Cell viability study: MTT assay; assay type: cell-based, human; conditions: for viability: Hep G2, 1 μM
Hep G2 cells [3] = assay: DNA fragmentation electrophoresis analysis; assay type: cell-based, human; conditions: Hep G2, 0.1 and 1 μM, 72 hours
Procedure: DNA fragmentation assessment was according to the method Herrmann et al, Nucleic Acids Res., 22, 5506-5507, 1994.
Briefly, HEP G2 cells (2×10^7) were treated for 72 hours with paclitaxel and docetaxel as set out above and centrifuged. The thus obtained cell pellets were resuspended with NP-40 lysis buffer (1% NP-40 in 20 mM EDTA, 50 mM Tris-HCl, pH 7.5). After lysis of cells for a few seconds, the supernatants were collected (5 minutes at 1600×g). The extraction was repeated with the same lysis buffer. SDS (final concentration 1%) and RNase were added (final concentration 2.5 μg/μl) to supernatants and incubated for 2 hours at 56° C. followed by digestion with proteinase K (2.5 μg/μl) for 2 hours at 37° C. Then, the mixtures were added to 10 M ammonium acetate prior to 100% ethanol precipitation for 30 minutes at −20° C. The DNA was collected by centrifugation (10 min at 12000 ×g) followed by electrophoresis on 1.5% agarose gel.
In FIG. 3, M is a 100 base pair marker. […] Lanes 2 and 3 show mean paclitaxel (0.1 and 1 μM) treatment groups. Lanes 4 and 5 show mean docetaxel (0.1 and 1 μM) treatment groups.

Hepa 1-6 cells = conditions: Hepa 1-6, 1 μM
Procedure: (§1) The experiments detailed below involve human hepatoma cell lines Hep3B (ATCC designation HB 8064), HepG2 (ATCC designation HB 8065) and HA22T/VGH, and murine hepatoma cell line Hepa 1-6. These cells were cultured in DMEM (GIBCO, BRL) containing 10% fetal bovine serum (Hyclone), 0.01 mg/ml gentamycin and 0.1 mM non-essential amino acid. Cells were grown in a CO2 incubator at 37° C., with 5% CO2 and 95% filtered air.
(§2) In the experiments detailed below the above hepatoma cells were treated with different concentrations of paclitaxel (0.001-10 μM) and docetaxel (0.001-10 μM) for 24 hours and 72 hours. Paclitaxel was dissolved in dimethylsulfoxide (DMSO) and docetaxel was dissolved in ethanol as stock solutions. The final concentration of vehicle was less than 0.1%.
(§3) Cells were cultured in a 96 well cell culture cluster (COSTAR) at a density of 4×10^4 cells/ml. After drug treatment for 24 hours or 72 hours, medium was discarded and replaced with an equal volume (100 μl) of fresh medium containing MTT (0.456 mg/ml; 3-[4,5-Dimethylthiazol-2-yl]2,5-diphenyl-tetrazolium bromide) and incubated for 1.5 hours at 37° C. The fresh medium was then discarded, and 100 μl DMSO was then added. Cell viability was determined by colorimetric comparison by reading OD values from a microplate reader (SPECTRA MAX250) at an absorption wavelength of 570 nm.
(§4) Data are the mean i standard error of mean from duplicate samples of three independent experiments.

Hep 3B cells [4] = conditions: 0.01 μM, 72 hours
Procedure: as §1, §2, §3, §4

HA22T/VGH cells [5] = assay: Propidium iodide (PI) exclusion assay, flow cytometry; assay type: cell-based, human
Procedure: Cells were grown on 5-cm^2 flasks (CORNING) and treated with paclitaxel and docetaxel as set out above. Propidium iodide (10 μg/ml) was then added for 15 minutes incubation at 37° C. Then, medium was collected prior to harvest of the adherent cells. Both suspended and attached cells were collected and resuspended with 500 μl PBS for flow cytometry analysis as set out below. Debris signals were removed by FSC-SSC gating.
(§5) Cells (10000) were analyzed on a Becton Dickinson FACS Calibur flow cytometer using an argon-ion laser (15 mWatt) with incident beam at 488 nm. For PI exclusion assay, red fluorescence was collected through a 585 nm filter and the cell debris signals were removed by FSC-SSC gating. Data were acquired and analyzed using FACS/CELL Quest software on a Power Macintosh 7600/120 computer. Apoptotic cells and cells at specific cycle phases were determined by ModFit LT software.
Data are mean±standard error of mean from duplicated sample of at least three independent experiments. Cells were treated with drugs for 24-72 hours, and membrane permeability was measured by flowcytometric analysis of propidium exclusion in viable hepatoma cells. Data are the percentage of cells with intact cell membrane as compared to control

Hep G2 cells [6] = assay: Flow cytometric analysis of DNA content (cell cycle, sub-G0/G1); assay type: cell-based, human; conditions: for apoptotic percentages (sub-G0/G1 cells): 0.001 μM
Procedure: (§6) Lysing buffer (0.5% Triton X-100, 0.2 μg/ml Na2EDTA.2H2O, and 1% bovine serum albumin in PBS) was added to the cell pellets which were then left on ice for 15 minutes. 100% methanol pre-cooled to −20° C. was then added to the mixture, which was then centrifuged at 300×g for 5 minutes. The supernatant was discarded and the cell pellet was washed with PBS. The washed pellet was stained with a DNA staining solution (50 μg/ml propidium iodide, and 5 kunitz/ml of RNase A) for 30 minutes at 4° C. in the dark. The DNA content of each cell was measured using a Becton Dickinson FACS Calibur flow cytometer as set out below.
as §5
(§7) Table 1 gives figures for cell membrane permeability of the hepatoma cells, following treatment with paclitaxel and docetaxel. Table 2 details the percentage of apoptotic (sub-G0/G1) cells found after paclitaxel and docetaxel treatment.

HA22T/VGH cells [7] = assay: as above; assay type: cell-based, human
Procedure: as §6, §5, §7

Hep 3B cells [8] = assay: as above; assay type: cell-based, human
Procedure: as §6, §5, §7

Structure (SMILES): CC(=O)O[C@@]12CO[C@@H]1C[C@H](O)[C@@]1(C)C(=O)[C@H](O)C3=C(C)[C@@H](OC(=O)[C@H](O)[C@@H](NC(=O)OC(C)(C)C)c4ccccc4)C[C@@](O)([C@@H](OC(=O)c4ccccc4)[C@H]21)C3(C)C [Docetaxel]
- cell viability compared with paclitaxel (FIG. 1) ([1]; 0.01 and 0.1 μM, in nearly every case): decreased viability
- in vitro activity against HCC cells compared with paclitaxel ([1]; concentrations of up to 1 μM): significantly higher
- viability (Hep G2 cells [2]; 24 hours): 65.03%
- viability (Hep G2 cells [2]; 72 hours): 48.99%
- viability at 10 μM compared with 1 μM (Hep G2 cells [2]; Hep G2, 10 μM, maximal reduction observed at 1 μM): no further decrease in viability
- DNA fragmentation (agarose gel, FIG. 3) (Hep G2 cells [3]): induced DNA fragmentation
- maximum cytotoxicity (Hepa 1-6 cells; 24 hours): 65.34%
- maximum cytotoxicity (Hepa 1-6 cells; 72 hours): 30.71%
- reduction of viability (Hep 3B cells [4]): 37.06%
- percentage of cells with intact cell membrane as compared to control (HA22T/VGH cells [5]; 24 hrs, 0.01 μM): 98.66 ± 9.0%
- percentage of cells with intact cell membrane as compared to control (HA22T/VGH cells [5]; 24 hrs, 0.1 μM): 38.71 ± 11.2%
- percentage of cells with intact cell membrane as compared to control (HA22T/VGH cells [5]; 24 hrs, 1 μM): 40.79 ± 5.0%
- percentage of cells with intact cell membrane as compared to control (HA22T/VGH cells [5]; 72 hrs, 0.01 μM): 55.44 ± 5.6%
- percentage of cells with intact cell membrane as compared to control (HA22T/VGH cells [5]; 72 hrs, 0.01 μM, listed as docetaxel): 55.44%
- percentage of cells with intact cell membrane as compared to control (HA22T/VGH cells [5]; 72 hrs, 0.1 μM): 21.24 ± 0.4%
- percentage of cells with intact cell membrane as compared to control (HA22T/VGH cells [5]; 72 hrs, 1 μM): 22.03 ± 3.1%
- apoptotic percentages (sub-G0/G1 cells) (Hep G2 cells [6]; Hep G2, 24 hours): 31.02%
- % of apoptotic (sub-G0/G1) cells (Hep G2 cells [6]; Hep G2, 24 hrs, 0.01 mM (text: μM)): 45.24%
- % of apoptotic (sub-G0/G1) cells (Hep G2 cells [6]; Hep G2, 24 hrs, 0.1 mM (text: μM)): 38.77%
- % of apoptotic (sub-G0/G1) cells (Hep G2 cells [6]; Hep G2, 24 hrs, 1 mM (text: μM)): 28.33%
- apoptotic percentages (sub-G0/G1 cells) (Hep G2 cells [6]; Hep G2, 72 hours): 21.92%
- % of apoptotic (sub-G0/G1) cells (Hep G2 cells [6]; Hep G2, 72 hrs, 0.01 mM (text: μM)): 42.45%
- % of apoptotic (sub-G0/G1) cells (Hep G2 cells [6]; Hep G2, 72 hrs, 0.1 mM (text: μM)): 42.44%
- % of apoptotic (sub-G0/G1) cells (Hep G2 cells [6]; Hep G2, 72 hrs, 1 mM (text: μM)): 56.66%
- % of apoptotic (sub-G0/G1) cells (HA22T/VGH cells [7]; 24 hrs, 0.01 mM (text: μM)): 41.75%
- % of apoptotic (sub-G0/G1) cells (HA22T/VGH cells [7]; 24 hrs, 0.1 mM (text: μM)): 18.61%
- % of apoptotic (sub-G0/G1) cells (HA22T/VGH cells [7]; 24 hrs, 1 mM (text: μM)): 22.94%
- % of apoptotic (sub-G0/G1) cells (HA22T/VGH cells [7]; 72 hrs, 0.01 mM (text: μM)): 56.64%
- % of apoptotic (sub-G0/G1) cells (HA22T/VGH cells [7]; 72 hrs, 0.1 mM (table head; text: μM)): 58.61%
- % of apoptotic (sub-G0/G1) cells (HA22T/VGH cells [7]; 72 hrs, 1 mM (table head; text: μM)): 60.98%
- % of apoptotic (sub-G0/G1) cells (Hep 3B cells [8]; 24 hrs, 0.01 mM (text: μM)): 59.14%
- % of apoptotic (sub-G0/G1) cells (Hep 3B cells [8]; 24 hrs, 0.1 mM (table head; text: μM)): 58.67%
- % of apoptotic (sub-G0/G1) cells (Hep 3B cells [8]; 24 hrs, 0.1 mM (table head; text: μM), listed as docetaxel): 58.69%
- % of apoptotic (sub-G0/G1) cells (Hep 3B cells [8]; 24 hrs, 1 mM (text: μM)): 65.74%
- % of apoptotic (sub-G0/G1) cells (Hep 3B cells [8]; 72 hrs, 0.01 mM (text: μM)): 64.12%
- % of apoptotic (sub-G0/G1) cells (Hep 3B cells [8]; 72 hrs, 0.1 mM (text: μM)): 81.66%
- % of apoptotic (sub-G0/G1) cells (Hep 3B cells [8]; 72 hrs, 1 mM (text: μM)): 79.33%
